Test results reported in patent publication US12275684B2, “Methods for making and using endoxifen” (Atossa Therapeutics, Inc., priority 2017, dated 2025).

Test: Accelerated stability study of (Z)-endoxifen free base solution in ethanol (E/Z by HPLC)
Assay type: physicochemical
Experimental: HPLC-UV analyses of the samples was carried out using a Luna phenyl-hexyl column (4.6 mm×150 mm×3 μm of particle size). The column temperature was 40° C. and sample compartment temperature was maintained at ambient temperature. Samples were prepared by dissolving solids and filtrates at 0.2 mg/ml of sample in methanol as sample buffer. Samples were then injected into the column in an injection volume of 20 μl. Likewise, mildly acidic (pH 4.3) ammonium formate buffer/methanol in the mobile phase with gradient elution was used. Mobile phase system consisting of: Mobile Phase A (MPA) buffer was 10 mM HCOONH4 with 0.03% HCOOH buffer in water, and Mobile Phase B (MBP) buffer was 10 mM HCOONH4 in methanol with a gradient program used.
The run time was 30 m, the flow rate was 1.0 mL/m, and the delay time was 5 m. Samples were detected by UV detection at 243 nm. Retention times were typically from 12.95 to 13.20 m for (E)-endoxifen and from 14.0 to 14.33 m for (Z)-endoxifen. Relative Retention Time (RRT) for (E)-endoxifen was […] and 1.0 for (Z)-endoxifen.
The stability of (Z)-endoxifen free base Sample 1 of Table 11 was studied when stored at various temperatures in solid form and in ethanol (EtOH) solution. The (E)-endoxifen and (Z)-endoxifen levels were measured on days 2, 7 and 10 following placement of 1 g aliquots of purified (Z)-endoxifen free base in 180 mL HDPE bottles under dry N2, which were then placed in double LDPE bags. The double bagged HDPE bottles containing each sample were individually packed in aluminum foil bags and thermally sealed until they were opened for testing the stability of the samples. The (E)- and (Z)-isomers of endoxifen were monitored by HPLC as disclosed above. The purity of (Z)-endoxifen in solid form remained at about 97% at 40° C., 60° C., and 80° C. up to 10 days.

[1] = 2.8 mg/mL in 70% EtOH, 25° C., 2 days
[2] = 2.8 mg/mL in 70% EtOH, 25° C., 7 days
[3] = 2.8 mg/mL in 70% EtOH, 25° C., 10 days
[4] = 2.8 mg/mL in 70% EtOH, 40° C., 2 days
[5] = 2.8 mg/mL in 70% EtOH, 40° C., 7 days
[6] = 2.8 mg/mL in 70% EtOH, 40° C., 10 days
[7] = 10 mg/mL in 99.5% EtOH, 25° C., 2 days
[8] = 10 mg/mL in 99.5% EtOH, 25° C., 7 days
[9] = 10 mg/mL in 99.5% EtOH, 25° C., 10 days
[10] = 10 mg/mL in 99.5% EtOH, 40° C., 2 days
[11] = 10 mg/mL in 99.5% EtOH, 40° C., 7 days
[12] = 10 mg/mL in 99.5% EtOH, 40° C., 10 days

(E)-endoxifen content [1]: (2.09%/ | (Z)-endoxifen content [1]: 96.59%) | E/Z ratio [1]: 1/46 | Total Impurity [1]: 1.33% | (E)-endoxifen content [2]: (5.62% | (Z)-endoxifen content [2]: 92.67%) | E/Z ratio [2]: 1/17 | Total Impurity [2]: 1.71% | (E)-endoxifen content [3]: (10.46%/ | (Z)-endoxifen content [3]: 88.20%) | Total Impurity [3]: 1.34% | (E)-endoxifen content [4]: (4.43%/ | (Z)-endoxifen content [4]: 94.23%) | E/Z ratio [4]: 1/21 | Total Impurity [4]: 1.34% | (E)-endoxifen content [5]: (15.23%/ | (Z)-endoxifen content [5]: 83.04%) | Total Impurity [5]: 1.73% | (E)-endoxifen content [6]: (22.59%/ | (Z)-endoxifen content [6]: 76.09%) | Total Impurity [6]: 1.32% | (E)-endoxifen content [7]: (1.37%/ | (Z)-endoxifen content [7]: 97.33%) | E/Z ratio [7]: 1/71 | Total Impurity [7]: 1.3% | (E)-endoxifen content [8]: (1.91%/ | (Z)-endoxifen content [8]: 96.37%) | E/Z ratio [8]: 1/50 | Total Impurity [8]: 1.72% | (E)-endoxifen content [9]: (2.58%/ | (Z)-endoxifen content [9]: 96.03%) | E/Z ratio [9]: 1/37 | Total Impurity [9]: 1.39% | (E)-endoxifen content [10]: (1.70%/ | (Z)-endoxifen content [10]: 96.98%) | E/Z ratio [10]: 1/57 | Total Impurity [10]: 1.32% | (E)-endoxifen content [11]: (2.82%/ | (Z)-endoxifen content [11]: 95.45%) | E/Z ratio [11]: 1/34 | Total Impurity [11]: 1/73% | (E)-endoxifen content [12]: (3.56%/ | (Z)-endoxifen content [12]: 95.10%) | E/Z ratio [12]: 1/27 | Total Impurity [12]: 1.34% | stability in alcoholic solutions (ethanol, elevated temperatures (40° C.), higher concentrations, over 10 days): surprisingly stable
Compound: CC/C(=C(\c1ccc(O)cc1)c1ccc(OCCNC)cc1)c1ccccc1 [(Z)-Endoxifen, (Z)-4-(1-(4-(2-(methylamino)ethoxy)phenyl)-2-phenylbut-1-enyl) phenol]
